In ChEMBL document CHEMBL1129657, “Tetrahydrobenzothiophenone derivatives as a novel class of adenosine receptor antagonists” (J Med Chem, 1996):
Where “and” joins values, the source holds several entries; their conditions need not be identical. Identical values can stand only once.

Tests used:
[1] = target: Adenosine A1 receptor (Rattus norvegicus) (UniProt P25099); experiment: Selectivity for rat adenosine A3 and rat adenosine A1 receptors
Adenosine receptor A3 [2] = target: T1, Adenosine receptor A3 (Rattus norvegicus, UniProt P28647); experiment: Displacement of [125I]AB-MECA from rat Adenosine A3 receptor expressed in CHO cell membrane; format: cell membranes
T1 sequence (P28647 whole entry): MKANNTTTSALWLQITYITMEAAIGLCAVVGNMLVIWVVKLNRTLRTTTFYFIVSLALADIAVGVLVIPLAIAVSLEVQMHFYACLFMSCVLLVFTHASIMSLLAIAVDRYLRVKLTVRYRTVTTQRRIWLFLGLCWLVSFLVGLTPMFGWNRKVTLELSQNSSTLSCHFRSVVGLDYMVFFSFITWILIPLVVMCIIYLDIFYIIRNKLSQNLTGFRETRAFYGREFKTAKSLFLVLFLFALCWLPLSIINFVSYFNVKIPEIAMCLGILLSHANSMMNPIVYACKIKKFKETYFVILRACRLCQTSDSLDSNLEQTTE

Adenosine receptor A1 = target: T2, Adenosine receptor A1 (Rattus norvegicus, UniProt P25099); experiment: Tested for the displacement [3H]PIA from Adenosine A1 receptor in rat brain membrane; format: cell membranes
T2 sequence (P25099 whole entry): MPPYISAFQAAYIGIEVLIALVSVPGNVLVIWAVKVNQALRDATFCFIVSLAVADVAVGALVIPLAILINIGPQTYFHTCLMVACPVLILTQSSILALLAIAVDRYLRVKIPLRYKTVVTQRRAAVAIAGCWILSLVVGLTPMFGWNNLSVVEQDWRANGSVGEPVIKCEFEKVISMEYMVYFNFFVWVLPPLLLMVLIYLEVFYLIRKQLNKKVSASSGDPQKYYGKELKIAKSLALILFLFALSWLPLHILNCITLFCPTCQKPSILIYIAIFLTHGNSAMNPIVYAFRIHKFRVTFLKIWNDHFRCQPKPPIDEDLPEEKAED

[3] = target: Adenosine receptors; A1 & A2a (Rattus norvegicus) (UniProt P25099+P30543); experiment: Selectivity for adenosine A2a and A1 receptors; format: protein assay
Adenosine receptor A2a [4] = target: T3, Adenosine receptor A2a (Rattus norvegicus, UniProt P30543)
Description: (§1) Displacement [3H]-CGS-21,680 from Adenosine A2A receptor in rat striatal membrane.

Adenosine receptor A3 [5] = target: T4, Adenosine receptor A3 (Homo sapiens, UniProt P0DMS8); experiment: Displacement of [125I]AB-MECA from human Adenosine A3 receptor expressed in HEK293 cell membrane; format: cell membranes
T4 sequence (P0DMS8 whole entry): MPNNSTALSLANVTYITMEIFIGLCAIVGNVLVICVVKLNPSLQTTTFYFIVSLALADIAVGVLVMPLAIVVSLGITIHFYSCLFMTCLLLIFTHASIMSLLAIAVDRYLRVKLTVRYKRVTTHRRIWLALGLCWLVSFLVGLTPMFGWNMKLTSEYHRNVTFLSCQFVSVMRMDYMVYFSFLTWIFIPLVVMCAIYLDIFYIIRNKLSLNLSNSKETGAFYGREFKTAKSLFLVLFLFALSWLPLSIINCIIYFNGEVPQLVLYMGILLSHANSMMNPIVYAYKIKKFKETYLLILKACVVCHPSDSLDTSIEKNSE

[6] = target: Adenosine receptor A2a (Rattus norvegicus) (UniProt P30543); experiment: Displacement [3H]CGS-21680 from Adenosine A2A receptor in rat striatal membrane; format: cell membranes; set-up: concentration or dose not given beside the values; conditions: Striatum, concentration not given here
[7] = target: T5, Adenosine receptor A1 (Rattus norvegicus) (UniProt P25099); experiment: Displacement of [3H]PIA from Adenosine A1 receptor of rat brain membrane at 10e-4 M
T5 sequence (whole entry): T2 sequence (P25099 whole entry)

Adenosine receptor A2a [8] = target: T3, Adenosine receptor A2a; remark: listed apart in the source
Description: as §1

[9] = target: T6, Adenosine receptor A3 (Homo sapiens) (UniProt P0DMS8); experiment: Displacement of [125I]AB-MECA from human Adenosine A3 receptor expressed in HEK293 cell membrane at 10e-4 M; format: cell membranes
T6 sequence (whole entry): T4 sequence (P0DMS8 whole entry)

Adenosine receptors; A1 & A2a (Rattus norvegicus), sequence (P30543 whole entry, looked up, one chain of several): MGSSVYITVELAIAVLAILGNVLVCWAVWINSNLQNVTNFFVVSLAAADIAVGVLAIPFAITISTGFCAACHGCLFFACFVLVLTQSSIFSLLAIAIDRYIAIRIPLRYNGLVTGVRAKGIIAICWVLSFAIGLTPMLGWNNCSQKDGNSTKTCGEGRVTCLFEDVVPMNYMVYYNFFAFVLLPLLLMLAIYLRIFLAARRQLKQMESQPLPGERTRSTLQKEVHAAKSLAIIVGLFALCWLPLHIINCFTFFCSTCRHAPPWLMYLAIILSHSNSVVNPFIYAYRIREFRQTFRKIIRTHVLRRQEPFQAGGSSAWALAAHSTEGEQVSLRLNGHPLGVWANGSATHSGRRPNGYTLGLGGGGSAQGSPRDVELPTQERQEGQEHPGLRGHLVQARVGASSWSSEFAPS
T3 sequence (P30543 whole entry): as the sequence (P30543 whole entry, looked up, one chain of several) above
Adenosine receptor A2a (Rattus norvegicus), sequence (P30543 whole entry): as the sequence (P30543 whole entry, looked up, one chain of several) above

Structure (SMILES) | Ki (Adenosine receptor A1) | Selectivity [3] | Ki (Adenosine receptor A2a [4]) [µM] | other results
CCOC(=O)CSc1sc(C(=O)OCC)c2c1C(=O)CCC2 | 2.22 µM | 11.5 | 25.6 | Selectivity [1]: 4.59; Ki (Adenosine receptor A3 [2]): 10.2 µM
CCOC(=O)c1sc(SC(C)CC)c2c1CC(C)(C)CC2=O (stereo not drawn) | 3.64 µM | 29.1 | 106 | 
O=C(O)c1sc(SCc2ccccc2)c2c1CCCC2=O | 50 µM | 0.3 | 15.2 | Ki (Adenosine receptor A3 [5]): 117 µM; Ki (Adenosine receptor A3 [2]): 42 µM
Nc1nc2ccc(Cl)cc2c2nc(-c3ccco3)nn12 [CGS-15943] |  |  | 3.3 | 
CCOC(=O)c1sc(SCC)c2c1CC(C)(C)CC2=O |  |  | 23.9 | 
CSc1scc2c1C(=O)CCC2 |  | > 1 |  | inhibition [6]: < 10%; inhibition [7]: 28%
COc1cc(-c2oc3c(OC)cc(CCCO)cc3c2C=O)ccc1O | 0.017 µM |  |  | 
CSc1sc(C(=O)NN)c2c1C=CCC2 | 51.6 µM | > 1.9 |  | Selectivity [1]: 0.25; Ki (Adenosine receptor A3 [2]): 13.1 µM; inhibition [6]: < 10%
O=c1c(-c2ccc(O)cc2)coc2cc(O)cc(O)c12 [GENISTEIN] |  |  | 36 | 
CCOC(=O)c1sc(S(C)(=O)=O)c2c1CC(C)(C)CC2=O | 32.7 µM | > 3.1 |  | Selectivity [1]: 1.58; Ki (Adenosine receptor A3 [2]): 51.8 µM; inhibition [6]: 13%
Nc1nc2ccc(Cl)cc2n2c(-c3ccccc3)nnc12 |  |  | 0.021 | 
CCOC(=O)c1sc(SCc2ccccc2)c2c1CCCC2=O | 0.72 µM and 0.715 µM | 1.9 | 1.36 | Ki (Adenosine receptor A2a [8]): 1.36 µM; inhibition [9]: 24%
CCOC(=O)c1sc(NN)c2c1CCCC2=O | 17.5 µM | 2.1 | 36.1 | 
CCOC(=O)c1sc(SCc2ccccc2)c2c1CC(C)(C)CC2=O | 0.567 µM | > 17.6 |  | inhibition [6]: 34%
Nc1nc2ccccc2n2cc(-c3ccccc3)nc12 | 0.034 µM |  | 0.29 | 

More lines, main results first:

Ki (Adenosine receptor A1) | Selectivity [3] | Ki (Adenosine receptor A2a [4]) [µM] | Structure (SMILES) | other results
1.93 µM | 1.9 | 3.66 | CCOC(=O)c1sc(SC)c2c1CCCC2=O | Selectivity [1]: 7.88; Ki (Adenosine receptor A3 [2]): 15.2 µM
18.3 µM | 1.8 | 33.5 | CCOC(=O)c1sc(SC)c2c1CCCC2O (stereo not drawn) | Ki (Adenosine receptor A3 [5]): 35.8 µM; Selectivity [1]: 0.84; Ki (Adenosine receptor A3 [2]): 15.4 µM
69.8 µM | > 1.4 |  | CCOC(=O)c1sc(SC)c2c1CCC/C2=N/OC | inhibition [6]: 22%
1.79 µM | 2.6 | 4.63 | CCOC(=O)c1sc(SC(C)C)c2c1CCCC2=O | 
1.06 µM | 5.7 | 6.04 | C=CCSc1sc(C(=O)OCC)c2c1C(=O)CCC2 | 
71.2 µM | > 1.4 |  | CSc1sc(C(=O)NN)c2c1C(O)CCC2 (stereo not drawn) | inhibition [6]: 28.9%
1.26 µM | 3.7 | 4.69 | CCCSc1sc(C(=O)OCC)c2c1C(=O)CCC2 | 
1.42 µM | 11 | 15.6 | CCCCSc1sc(C(=O)OCC)c2c1C(=O)CCC2 | 
